Measured values: patent US20200277571A1, “METHOD FOR AMPLIFYING CONE PHOTORECEPTORS OR ROD PHOTORECEPTORS USING DORSALIZATION SIGNAL TRANSMITTER OR VENTRALIZATION SIGNAL TRANSMITTER” (RIKEN, priority 2017, published 2020)

Legend:
[1] = test system: photoreceptor precursor and cone photoreceptor precursor in retinal tissue produced from human ES cells; assay: Immunostaining for CRX and TRβ2 and CRX::Venus fluorescence observation of retinal tissue, day 70-75 of suspension culture; format: cell-based; conditions: for CRX-positive and TRβ2-positive cells (cone photoreceptor precursor; proportion to DAPI-positive cells): day 70-75, Control (NUC) about 6.8%; for CRX-positive and TRβ2-positive cells (cone photoreceptor precursor; proportion to DAPI-positive cells) / CRX-positive cells (proportion to DAPI-positive cells) / green fluorescence shown by knocked-in CRX::Venus (order of groups) / cone photoreceptor precursor that emerges in initial stage of development (CRX-positive, TRβ2-expressing) versus Control group / CRX-positive cells (photoreceptor precursors) versus retinal tissue of the Control group: 0.15 nM BMP4, 500 nM Cyclopamine-KAAD; for CRX-positive and TRβ2-positive cells (cone photoreceptor precursor; proportion to DAPI-positive cells) / CRX-positive cells (proportion to DAPI-positive cells): 100 nM LDN193189 or 100 nM SAG from day 22; for CRX-positive cells (proportion to DAPI-positive cells): day 70-75 from start of suspension culture, Control (NUC) about 10.6%; for green fluorescence shown by knocked-in CRX::Venus (order of groups): day 70, fluorescence microscope; for green fluorescence shown by knocked-in CRX::Venus (order of groups) / cone photoreceptor precursor that emerges in initial stage of development (CRX-positive, TRβ2-expressing) versus Control group / CRX-positive cells (photoreceptor precursors) versus retinal tissue of the Control group: 100 nM LDN193189, 100 nM SAG from day 22; for cone photoreceptor precursor that emerges in initial stage of development (CRX-positive, TRβ2-expressing) versus Control group: day 70 or 75; for CRX::Venus-positive cells (GFP immunostaining) versus Control (NUC) group / CRX-positive cells (photoreceptor precursors) versus retinal tissue of the Control group: day 75; for CRX::Venus-positive cells (GFP immunostaining) versus Control (NUC) group: along with change of ALDH1A3 region, 0.15 nM BMP4, 100 nM LDN193189, 100 nM SAG from day 22; for CRX-positive cells (photoreceptor precursors) versus retinal tissue of the Control group: immunostained sections
Description: CRX::Venus knock-in human ES cells (derived from KhES-1; Nakano, T. et al. Cell Stem Cell 2012, 10(6), 771-785) were cultured according to the methods described in “Ueno, M. et al. PNAS 2006, 103(25), 9554-9559” “Watanabe, K. et al. Nat Biotech 2007, 25, 681-686”. As a medium for culturing human ES cells, DMEM/F12 medium (Sigma) supplemented with 20% KSR (KnockOut™ Serum Replacement; Invitrogen), 0.1 mM 2-mercaptoethanol, 2 mM L-glutamine, ix non-essential amino acid, 7.5 ng/mL bFGF was used.
A cell aggregate containing a retinal tissue was prepared by the method described in “Kuwahara et al. Nat Commun 2015, 19(6), 6286-” after modification in part. That is, the aforementioned cultured ES cells were individually dispersed using TrypLE Express (Invitrogen), and the individually dispersed human ES cells were suspended in 100 μL of a serum-free medium in a cell non-adhesive 96 well plate (SUMILON spheroid plate, SUMITOMO BAKELITE CO., LTD.) at 9×10^3 cells per well to allow rapid formation of aggregates, after which they were cultured at 37° C., 5% CO2. As the serum-free medium therefor, a serum-free medium obtained by adding 10% KSR, 450 μM 1-monothioglycerol, 1× Chemically defined lipid concentrate, 5 mg/mL BSA, 20 μM Y27632 to a 1:1 mixture of F-12 medium and IMDM medium was used. At 6 days after the start of suspension culture, BMP4 at a final concentration of 1.5 nM was added and suspension culture was continued. A half amount of the culture medium in the well was exchanged with the above-mentioned medium not supplemented with a BMP signal transduction pathway agonist every 3 or 4 days. A cell aggregate containing a retinal tissue at day 18 from the start of suspension culture was cultured in suspension in a serum-free medium (DMEM/F12 medium supplemented with 1% N2 supplement) containing 3 μM CHIR99021 and 5 μM SU5402 for 4 days, namely, up to day 22 from the start of suspension culture. Thereafter, suspension culture of the cell aggregate containing the retinal tissue was continued until it was appropriately used for analysis and the like. As the culture medium during this period, serum-containing media shown in the following to [3] were used and the cell aggregate was cultured under 5% CO2 conditions.
[1] day 22 to day 38 from the start of suspension culture; DMEM/F12 medium supplemented with 10% fetal calf serum, 1% N2 supplement, and 100 μM taurine. day 38 to day 60 from the start of suspension culture; a 1:3 mixed medium of DMEM/F12 medium supplemented with 10% fetal calf serum, 1% N2 supplement, and 100 μM taurine, and Neurobasal medium supplemented with 10% fetal calf serum, 2% B27 supplement, and 100 μM taurine. after day 60 from the start of suspension culture; Neurobasal medium supplemented with 10% fetal calf serum, 2% B27 supplement, and 100 μM taurine.
[1] Control group (FIG. 2a, f, k, p); according to the method described in Example 1, culture was performed up to day 70 or day 75 from the start of suspension culture and without addition. [2]+BMP group (FIG. 2b, g, 1, q); 0.15 nM BMP4 was added from day 22 from the start of suspension culture to completion of suspension culture, and cultured up to day 70 or day 75 from the start of suspension culture. [3]+Cyclopamine-KAAD group (FIG. 2c, h, m, r); 500 nM Cyclopamine-KAAD was added from day 22 from the start of suspension culture to completion of the suspension culture, and cultured up to day 70 or day 75 from the start of suspension culture. [4]+LDN193189 group (FIG. 2d, i, n, s); 100 nM LDN193189 was added from day 22 from the start of suspension culture to completion of the suspension culture, and cultured up to day 70 or day 75 from the start of suspension culture. [5]+SAG group (FIG. 2e, j, o, t); 100 nM SAG was added from day 22 from the start of suspension culture to completion of the suspension culture, and cultured up to day 70 or day 75 from the start of suspension culture. […]

ALDH1A1 = assay: Immunostaining for ALDH1A1 (dorsal marker) of retinal tissue; format: cell-based, human
Description: [1] Control group (FIG. 2a, f, k, p); according to the method described in Example 1, culture was performed up to day 70 or day 75 from the start of suspension culture and without addition. [2]+BMP group (FIG. 2b, g, 1, q); 0.15 nM BMP4 was added from day 22 from the start of suspension culture to completion of suspension culture, and cultured up to day 70 or day 75 from the start of suspension culture. [3]+Cyclopamine-KAAD group (FIG. 2c, h, m, r); 500 nM Cyclopamine-KAAD was added from day 22 from the start of suspension culture to completion of the suspension culture, and cultured up to day 70 or day 75 from the start of suspension culture. [4]+LDN193189 group (FIG. 2d, i, n, s); 100 nM LDN193189 was added from day 22 from the start of suspension culture to completion of the suspension culture, and cultured up to day 70 or day 75 from the start of suspension culture. [5]+SAG group (FIG. 2e, j, o, t); 100 nM SAG was added from day 22 from the start of suspension culture to completion of the suspension culture, and cultured up to day 70 or day 75 from the start of suspension culture.
The retinal tissue produced by the methods described in Example 2 and Example 7 was fixed with 4% para-formaldehyde, cryosections were prepared, and immunostaining for ALDH1A1 was performed. The retinal tissue used was one on day 75 from the start of suspension culture similar to Example 2 and one on about day 40 from the start of suspension culture and cultured under the same conditions except the culture period as in Example 7.

[2] = about day 40 from start of suspension culture, 0.15 nM BMP4, 100 nM LDN193189, 100 nM SAG from day 22

Row | Compound | CRX-positive and TRβ2-positive cells (cone photoreceptor precursor; proportion to DAPI-positive cells) [1] | CRX-positive cells (proportion to DAPI-positive cells) [1] | green fluorescence shown by knocked-in CRX::Venus (order of groups) [1] | cone photoreceptor precursor that emerges in initial stage of development (CRX-positive, TRβ2-expressing) versus Control group [1] | CRX::Venus-positive cells (GFP immunostaining) versus Control (NUC) group [1] | CRX-positive cells (photoreceptor precursors) versus retinal tissue of the Control group [1] | clear ALDH1A1-positive region (dorsal region) (ALDH1A1; [2]) | clear ALDH1A1-positive region (dorsal region) (ALDH1A1; day 75 from start of suspension culture, 0.15 nM BMP4 from day 22)
1 | BMP4: BMP protein; BMP signal transduction pathway agonist used as dorsalization signal transmitter | about 10.8% | about 17.0% | observed more in the order of +BMP4 group, +Cyclopamine-KAAD group, Control group, +LDN193189 group, +SAG group | observed more | increased | clearly higher | found only in +BMP4 group | not observed
2 | CC1=C2C[C@H]3[C@@H](CC=C4CC(=O)CC[C@@]43C)[C@@H]2CC[C@]12O[C@@H]1C[C@H](C)CN(CCNC(=O)CCCCCNC(=O)CCc3ccccc3)[C@H]1[C@H]2C [Cyclopamine-KAAD] | ~8.1% | ~14.1% | observed more in the order of +BMP4 group, +Cyclopamine-KAAD group, Control group, +LDN193189 group, +SAG group | observed more | – | Slightly more | – | –
3 | c1ccc2c(-c3cnn4cc(-c5ccc(N6CCNCC6)cc5)cnc34)ccnc2c1 [LDN193189, 4-[6-(4-piperazin-1-ylphenyl)pyrazolo[1,5-a]pyrimidin-3-yl]quinoline] | ~4.5% | about 6.8% | observed more in the order of +BMP4 group, +Cyclopamine-KAAD group, Control group, +LDN193189 group, +SAG group | less | decreased | less | not found | –
4 | CNC1CCC(N(Cc2cccc(-c3ccncc3)c2)C(=O)c2sc3ccccc3c2Cl)CC1 (stereo not drawn) [SAG] | ~3.2% | ~5.1% | observed more in the order of +BMP4 group, +Cyclopamine-KAAD group, Control group, +LDN193189 group, +SAG group | less | decreased | lesser | not found | –
